Results: patent publication US9868739B2, “Salt(s) of 7-cyclopentyl-2-(5-piperazin-1-yl-pyridin-2-ylamino)-7H-pyrrolo[2,3-d]pyrimidine-6-carboxylic acid dimethylamide and processes of making thereof” (Novartis AG, priority 2010, dated 2018)

Tests used:
[1] = Dynamic Vapor Sorption (DVS), moisture cycles 0-90-0% RH; format: physicochemical
[2] = Dynamic Vapor Sorption (DVS), moisture cycle 0-80-0% RH; format: physicochemical
physchem = settings: water

Question: Which results are given for `CN(C)C(=O)c1cc2cnc(Nc3ccc(N4CCNCC4)cn3)nc2n1C1CCCC1.O=C(O)CCC(=O)O` [Compound of Formula (II), 7-Cyclopentyl-N,N-dimethyl-2-(5-(piperazin-1-yl)pyridin-2-ylamino)-7H-pyrrolo[2,3-d]pyrimidine-6-carboxamide succinate]?
Answer: moisture absorbed ([1]; at 90% RH, in each cycle (0 to 90 to 0% RH, two cycles)): up to 2%; physical form after exposure ([1]; upon exposure to 90% RH (XRPD, DSC, TGA)): change in physical form; Change In Mass (%) Hysteresis ([2]; Cycle 1, target RH 50.0%): 0.0074%; Change In Mass (%) Hysteresis ([2]; Cycle 1, target RH 60.0%): 0.0140%; Change In Mass (%) Desorption ([2]; Cycle 1, target RH 80.0%): 0.5200%; moisture absorbed ([2]; at 80% RH (0 to 80 to 0% RH cycle)): up to 0.5%; physical form after exposure ([2]; upon exposure to 80% RH (XRPD)): stability of the physical form

Question: With `CN(C)C(=O)c1cc2cnc(Nc3ccc(N4CCNCC4)cn3)nc2n1C1CCCC1.O=C(O)CCC(=O)O` [hydrate form, succinate salt of 7-Cyclopentyl-2-(5-piperazin-1-yl-pyridin-2-ylamino)-7H-pyrrolo[2,3-d]pyrimidine-6-carboxylic acid dimethylamide] as the compound, how does the solubility (physchem; solubility) read?
Answer: < 0.5 mg/mL

Question: For `CN(C)C(=O)c1cc2cnc(Nc3ccc(N4CCNCC4)cn3)nc2n1C1CCCC1.O=C(O)CCC(=O)O` [non-hydrate form, succinate salt of 7-Cyclopentyl-2-(5-piperazin-1-yl-pyridin-2-ylamino)-7H-pyrrolo[2,3-d]pyrimidine-6-caboxylic acid dimethylamide], which solubility (physchem; solubility in water) is on record?
Answer: ~30 mg/mL
